Results published in US12577226B2, “Compounds for treating Huntington's disease” (PTC THERAPEUTICS, INC., priority 2019, dated 2026).

The compounds below were run on Endogenous Huntingtin Protein (capture with MW1 (expanded polyglutamine) or MAB2166 antibody) (assay: Endogenous Huntingtin Protein Assay (ELISA-based Meso Scale Discovery electrochemiluminescence assay)). Conditions: MSD electrochemiluminescence platform.
Type: cell-based
Experimental: Compounds of Formula (I), Formula (II), or Formula (III) were tested using the Meso Scale Discovery (MSD) Assay provided in International Application No. PCT/US2016/066042, filed on Dec. 11, 2016 and claiming priority to U.S. Provisional Application U.S. 62/265,652 filed on Dec. 10, 2015, the entire contents of which are incorporated herein by reference.
The Endogenous Huntingtin Protein assay used in Example 1 was developed using the ELISA-based MSD electrochemiluminescence assay platform.
Meso Scale Discovery (MSD) 96-well or 384-well plates were coated overnight at 4° C. with MW1 (expanded polyglutamine) or MAB2166 monoclonal antibody (for capture) at a concentration of 1 μg/mL in PBS (30 μL per well). Plates were then washed three times with 300 μL wash buffer (0.05% Tween-20 in PBS) and blocked (100 μL blocking buffer; 5% BSA in PBS) for 4-5 hours at room temperature with rotational shaking and then washed three times with wash buffer.
Samples (25 μL) were transferred to the antibody-coated MSD plate and incubated overnight at 4° C. After removal of the lysates, the plate was washed three times with wash buffer, and 25 μL of #5656S (Cell signaling; rabbit monoclonal) secondary antibody (diluted to 0.25 μg/mL in 0.05% Tween-20 in blocking buffer) was added to each well and incubated with shaking for 1 Hour at room temperature. Following incubation with the secondary antibody, the wells were rinsed with wash buffer after which 25 μL of goat anti-rabbit SULFO TAG secondary detection antibody (required aspect of the MSD system) (diluted to 0.25 μg/mL in 0.05% Tween-20 in blocking buffer) was added to each well and incubated with shaking for 1 hour at room temperature. After rinsing three times with wash buffer, 150 μL of read buffer T with surfactant (MSD) were added to each empty well, and the plate was imaged on a SI 6000 imager (MSD) according to manufacturers' instructions provided for 96- or 384-well plates.
Compound “2-(6-{[(3R,4S)-3-fluoro-2,2,6,6-tetramethylpiperidin-4-yl]oxy}pyridazin-3-yl)-5-(imidazo[1,2-b]pyridazin-6-yl)pyridin-3-ol and 2-(6-{[(3S,4R)-3-fluoro-2,2,6,6-tetramethylpiperidin-4-yl]oxy}pyridazin-3-yl)-5-(imidazo[1,2-b]pyridazin-6-yl)pyridin-3-ol [Compound 49]” has an IC50 of at most 100 nM.
For `CC1(C)C[C@H](Oc2ccc(-c3ncc(-c4cn[nH]c4)cc3O)nn2)[C@H](F)C(C)(C)N1` (single isomer, unassigned) [Compound 51, 2-(6-{[(3R,4S)-3-fluoro-2,2,6,6-tetramethylpiperidin-4-yl]oxy}pyridazin-3-yl)-5-(1H-pyrazol-4-yl)pyridin-3-ol or 2-(6-{[(3S,4R)-3-fluoro-2,2,6,6-tetramethylpiperidin-4-yl]oxy}pyridazin-3-yl)-5-(1H-pyrazol-4-yl)pyridin-3-ol], the IC50 was at most 100 nM.
Compound `CC1CN(c2ccc(-c3ncc(NCc4cccnc4)cc3O)nn2)CCN1` (stereo not shown) [Compound 110, 2-[6-(3-methylpiperazin-1-yl)pyridazin-3-yl]-5-{[(pyridin-3-yl)methyl]amino}pyridin-3-ol] has an IC50 of 500 to 1000 nM.
Compound `[2H]C([2H])([2H])n1cc(-c2cnc(-c3ccc(N4CC[C@@H](NC(C)(C)C)C4)nn3)c(O)c2)cn1` [Compound 23, 2-{6-[(3R)-3-(tert-butylamino)pyrrolidin-1-yl]pyridazin-3-yl}-5-[1-(^2H3)methyl-1H-pyrazol-4-yl]pyridin-3-ol] has an IC50 of at most 100 nM.
For “5-(7-fluoro-2-methyl-2H-indazol-5-yl)-2-{6-[(3R,5S)-3,4,5-trimethylpiperazin-1-yl]pyridazin-3-yl}pyridin-3-ol and 5-(7-fluoro-2-methyl-2H-indazol-5-yl)-2-{6-[(3S,5R)-3,4,5-trimethylpiperazin-1-yl]pyridazin-3-yl}pyridin-3-ol [Compound 91]”, the IC50 was at most 100 nM.
In the case of `Cn1cc2cc(-c3cnc(-c4ccc(O[C@H]5CC(C)(C)NC(C)(C)[C@H]5F)nn4)c(O)c3)cc(F)c2n1` (single isomer, unassigned) [Compound 35, 5-(7-fluoro-2-methyl-2H-indazol-5-yl)-2-(6-{[(3R,4S)-3-fluoro-2,2,6,6-tetramethylpiperidin-4-yl]oxy}pyridazin-3-yl)pyridin-3-ol or 5-(7-fluoro-2-methyl-2H-indazol-5-yl)-2-(6-{[(3S,4R)-3-fluoro-2,2,6,6-tetramethylpiperidin-4-yl]oxy}pyridazin-3-yl)pyridin-3-ol], the IC50 is reported as at most 100 nM.
`CN[C@@H]1CCN(c2ccc(-c3ncc(-c4ncco4)cc3O)nn2)C1` [Compound 80, 2-{6-[(3R)-3-(methylamino)pyrrolidin-1-yl]pyridazin-3-yl}-5-(1,3-oxazol-2-yl)pyridin-3-ol] showed an IC50 of 100 to 500 nM.
Compound `CC1CN(c2ccc(-c3ncc(NCc4ccncc4)cc3O)nn2)CCN1` (stereo not shown) [Compound 111, 2-[6-(3-methylpiperazin-1-yl)pyridazin-3-yl]-5-{[(pyridin-4-yl)methyl]amino}pyridin-3-ol] has an IC50 of 500 to 1000 nM.
Compound `Cc1cn2cc(-c3cnc(-c4ccc(O[C@@H]5CC(C)(C)NC(C)(C)[C@@H]5F)nn4)c(O)c3)cc2c(C)n1.Cc1cn2cc(-c3cnc(-c4ccc(O[C@H]5CC(C)(C)NC(C)(C)[C@H]5F)nn4)c(O)c3)cc2c(C)n1` (mixture of isomers) [Compound 67, 5-(1,3-dimethylpyrrolo[1,2-a]pyrazin-7-yl)-2-(6-{[(3R,4S)-3-fluoro-2,2,6,6-tetramethylpiperidin-4-yl]oxy}pyridazin-3-yl)pyridin-3-ol and 5-(1,3-dimethylpyrrolo[1,2-a]pyrazin-7-yl)-2-(6-{[(3S,4R)-3-fluoro-2,2,6,6-tetramethylpiperidin-4-yl]oxy}pyridazin-3-yl)pyridin-3-ol] has an IC50 of at most 100 nM.
With `CC1(C)CN(c2ccc(-c3ncc(-c4cn[nH]c4)cc3O)nn2)CC(C)(C)N1` [Compound 88, 5-(1H-pyrazol-4-yl)-2-[6-(3,3,5,5-tetramethylpiperazin-1-yl)pyridazin-3-yl]pyridin-3-ol] the IC50 was 100 to 500 nM.
